These results are taken from ChEMBL document CHEMBL3091429, “Structure-activity relationships of retro-dihydrochalcones isolated from Tacca sp” (J Nat Prod, 2013).

Activity calls are given as the source filed them. The rule behind the calls is not given here.

The target in assay [1] is Tubulin (Sus scrofa) (UniProt P02554+P02550). The assay is described as follows: Inhibition of purified porcine tubulin polymerization 100 uM by spectrophotometry. The format is protein assay.
Assay [2] relates to PC-3. The experiment in a line: Antiproliferative activity against human PC3 cells by SRB assay. The format is functional, cell-based.
Assay [3] concerns A549. The experiment in a line: Antiproliferative activity against human A549 cells by SRB assay. The format is functional, cell-based.
For assay [4], the system named is HeLa. The experiment in a line: Antiproliferative activity against human HeLa cells by SRB assay. The format is functional, cell-based. On the technique in general: In SRB staining, fixed cells bind dye roughly in proportion to their protein.

The term inhibition denotes the change of the read-out against control, counted positive when it falls. Broadly, the IC50 is the point on the concentration scale where inhibition reaches its midpoint.

Tubulin (Sus scrofa), sequence (P02550 whole entry, looked up): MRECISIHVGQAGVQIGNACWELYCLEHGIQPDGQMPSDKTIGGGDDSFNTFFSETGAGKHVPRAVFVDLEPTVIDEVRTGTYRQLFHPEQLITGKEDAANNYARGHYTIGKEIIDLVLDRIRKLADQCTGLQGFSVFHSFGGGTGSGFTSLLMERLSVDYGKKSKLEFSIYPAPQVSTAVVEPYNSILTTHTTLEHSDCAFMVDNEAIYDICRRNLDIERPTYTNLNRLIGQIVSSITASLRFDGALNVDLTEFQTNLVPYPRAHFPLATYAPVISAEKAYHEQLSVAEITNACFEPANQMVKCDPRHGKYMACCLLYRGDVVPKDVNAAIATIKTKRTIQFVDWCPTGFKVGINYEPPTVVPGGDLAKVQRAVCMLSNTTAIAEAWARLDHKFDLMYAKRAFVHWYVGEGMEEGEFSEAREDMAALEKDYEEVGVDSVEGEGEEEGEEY
Tubulin (Sus scrofa), sequence (P02554 whole entry, looked up): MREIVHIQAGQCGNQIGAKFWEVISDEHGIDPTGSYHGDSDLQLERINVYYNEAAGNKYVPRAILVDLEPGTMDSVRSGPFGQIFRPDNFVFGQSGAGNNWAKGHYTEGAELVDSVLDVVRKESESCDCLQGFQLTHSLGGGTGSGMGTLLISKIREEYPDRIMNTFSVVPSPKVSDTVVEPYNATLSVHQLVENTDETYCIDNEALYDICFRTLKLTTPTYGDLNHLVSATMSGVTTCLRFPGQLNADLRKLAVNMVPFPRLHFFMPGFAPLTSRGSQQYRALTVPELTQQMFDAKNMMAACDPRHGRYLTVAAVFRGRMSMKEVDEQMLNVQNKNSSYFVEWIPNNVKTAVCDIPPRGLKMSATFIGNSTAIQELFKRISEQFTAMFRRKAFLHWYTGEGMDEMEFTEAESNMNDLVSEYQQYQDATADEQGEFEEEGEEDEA

As for `COC1=CC(=O)C(CCC(=O)c2ccc(OC)c(OC)c2)=C(OC)C1=O`, in assay [1], the inhibition entry is “inactive”.

Regarding `COc1cc(OC)c(CCC(O)c2ccc3c(c2)OCO3)c(OC)c1` (configuration not stated), the inhibition entry in assay [1] was “Active”. For the same compound, the IC50 in assay [2], in assay [3] and in assay [4] was more than 50 µM throughout.

On to `COC1=CC(=O)C(CCC(=O)c2ccc3c(c2)OCO3)=C(OC)C1=O`, for which, in assay [1], the inhibition amounted to 40%. Moreover, the IC50 in assay [2] came to 5 µM; in assay [3], 8.3 µM; in assay [4], 8.8 µM.

As to `COc1cc(O)c(CCC(=O)c2ccc(O)c(OC)c2)c(OC)c1`, the inhibition result in assay [1] is “Active”. In addition, the IC50 in assay [2], in assay [3] and in assay [4] was more than 50 µM in each case.

In the case of `COc1cc(OC)c(CCC(=O)c2ccc(O)c(OC)c2)c(OC)c1`, in assay [1], the inhibition is 10%. For the same compound, the IC50 in assay [2] is more than 50 µM; in assay [3] it was 40.3 µM; in assay [4] it was 28.9 µM.

As for `COc1cc(OC)c(CCC(=O)c2ccc(OC)c(O)c2)c(OC)c1`, in assay [1], the inhibition entry was “Active”.

Regarding `COc1ccc(C(=O)CCc2c(OC)cc(OC)c(OC)c2OC)cc1OC`, in assay [1], the inhibition result is “inactive”. In addition, the IC50 in assay [2], in assay [3] and in assay [4] was more than 50 µM throughout.
